These are literature values, as cited in PubChem BioAssay AID1259410 (Chemical Carcinogenesis Research Information System (CCRIS), 2018).

Numbered stars: 1 amine (or outer) side, 2 acyl side, 3 side chain; on linkers, the order of the positions; unused ones are H or OH. Square brackets hold non-standard residues; d marks the D form. Peptide text beside a SMILES is read from it. X1 = O=C(C(N[*:1])c1ccc(OS(=O)(=O)O)cc1)[*:2]

The series has as its system rodent tumor promotion studies, tumor incidence. The experiment in a line: CCRIS tumor promotion studies.
The mark [1] stands for this setting: Carcinogen: 7,12-DIMETHYLBENZ(A)ANTHRACENE, Doses [Carcinogen]: TOP, Route [Carcinogen]: DERMAL, Route [Promoter]: DERMAL, Species: MOUSE, Strain/Sex: MALE,FEMALE.

Regarding `COc1c2occc2cc2ccc(=O)oc12`, the outcome reads like this: (Carcinogen: 4-(Methylnitrosamino)-1-(3-pyridyl)-1-butanone (NNK), 64091-91-4, Doses [Carcinogen]: Once, 2 mg/0.1 ml saline/mouse on first day, study duration 32 wks, Doses [Carcinogen]: Once, 2 mg/0.1 ml saline/mouse on first day, study duration 32 wks, Doses [Promoter]: 100 ppm in diet from wks 2-16, study duration 32 wks, Route [Carcinogen]: Intraperitoneal, Route [Promoter]: Oral, Species: Mouse, Strain/Sex: A/J/Female) “lung: adenoma (2.15 vs 1.54, not significant)”; (Carcinogen: 4-(Methylnitrosamino)-1-(3-pyridyl)-1-butanone (NNK), 64091-91-4, Doses [Carcinogen]: Once, 2 mg/0.1 ml saline/mouse on first day, study duration 32 wks, Doses [Carcinogen]: Once, 2 mg/0.1 ml saline/mouse on first day, study duration 32 wks, Doses [Promoter]: 100 ppm in diet from wks16-32, study duration 32 wks, Route [Carcinogen]: Intraperitoneal, Route [Promoter]: Oral, Species: Mouse, Strain/Sex: A/J/Female) “lung: adenoma and adenocarcinoma (7.31 vs 6.78, not significant)”.
On to `COC[C@@H]([C@H](O)[C@H](O)C(=O)NCC[C@H](C)c1nc(/C=C/C[C@@H]2O[C@]3(C[C@@H](O)[C@@H]2C)O[C@H]([C@H](C[C@H](O)[C@H](C)[C@H](O)[C@H](C)/C=C(C)/C(C)=C/C=C/C(C)=C\C#N)OC)[C@H](OP(=O)(O)O)C3(C)C)co1)N(C)C`, for which the outcome (Carcinogen: 7,12-DIMETHYLBENZ[A]ANTHRACENE, 57-97-6, Doses [Carcinogen]: 100 UG IN 0.1 ML ACETONE TO THE DORSAL SKIN ONCE, Doses [Promoter]: 0, 0.1, 1 UG IN 0.1 ML ACETONE TO THE DORSAL SKIN 2/WK FOR 29 WK BEGINNING 1 WK POST CARCINOGEN DOSE (STUDY DURATION: 30, Doses [Promoter]: 0, 0.1, 1 UG IN 0.1 ML ACETONE TO THE DORSAL SKIN 2/WK FOR 29 WK BEGINNING 1 WK POST CARCINOGEN DOSE (STUDY DURATION: 30, Route [Carcinogen]: DERMAL, Route [Promoter]: DERMAL, Species: MOUSE, Strain/Sex: CD-1/FEMALE) was “skin: papilloma”.
In the case of `O=CC=O`, the outcome (Carcinogen: N-METHYL-N'-NITRO-N-NITROSOGUANIDINE, 70-25-7, Doses [Carcinogen]: 100 MG/L IN DRINKING WATER FOR 8 WK, Doses [Promoter]: 0, 0.5% IN DRINKING WATER BEGINNING POST LAST CARCINOGEN DOSE AND CONTINUING FOR 32 WK (STUDY DURATION: 40 WK), Route [Carcinogen]: ORAL, Route [Promoter]: ORAL, Species: RAT, Strain/Sex: WISTAR/MALE) is listed as “glandular stomach (pylorus): adenocarcinoma”.
As for `S=C=NCc1ccccc1`, the outcome (Carcinogen: DIETHYLNITROSAMINE, 55-18-5, N-BUTYL-N-(4-HYDROXYBUTYL)NITROSAMINE, 3817-11-6, Carcinogen: DIETHYLNITROSAMINE, 55-18-5, N-BUTYL-N-(4-HYDROXYBUTYL)NITROSAMINE, 3817-11-6, Doses [Carcinogen]: 200 MG/KG DEN ONCE THEN 0.05% BBN IN DRINKING WATER FOR 4 WK, Doses [Promoter]: 0, 0.1% IN DIET FOR 32 WK BEGINNING 3 D POST CARCINOGEN TREATMENT (STUDY DURATION:36 WK), Route [Carcinogen]: INTRAPERITONEAL, ORAL, Route [Promoter]: ORAL, Species: RAT, Strain/Sex: F344/MALE) is reported as “urinary bladder: papilloma, carcinoma”.
As for `C=C(C)[C@H]1CC=C(C)CC1`, the outcome is, setting by setting: under setting [1], “integumentary system (skin)”; (Carcinogen: N-ETHYL-N-HYDROXYETHYLNITROSAMINE, 13147-25-6, Doses [Carcinogen]: 500 PPM IN DRINKING WATER FOR 2 WK, Doses [Promoter]: 0, 150 MG/KG/D IN CORN OIL 5 D/WK FOR 30 WK BEGINNING POST CARCINOGEN TREATMENT (STUDY DURATION: 32 WK), Route [Carcinogen]: ORAL, Route [Promoter]: GAVAGE, Species: RAT, Strain/Sex: F344/MALE) “kidney: adenoma”; (Carcinogen: URETHANE, Doses [Carcinogen]: TOP, Route [Carcinogen]: DERMAL, Route [Promoter]: DERMAL, Species: MOUSE, Strain/Sex: MALE,FEMALE) “integumentary system (skin)”.
Take `COc1cc([C@@H]2Oc3cc([C@H]4Oc5cc(O)cc(O)c5C(=O)[C@@H]4O)ccc3O[C@H]2CO)ccc1O`: the outcome (Carcinogen: 1-Methyl-1-nitrosourea, 684-93-5, Doses [Carcinogen]: 50 mg/lg once 30 days after initial silymarin dose, Doses [Promoter]: 0, 0.03, 0.1, 0.3, 1% (w/w) in diet for 140 d beginning at 21 d of age, Doses [Promoter]: 0, 0.03, 0.1, 0.3, 1% (w/w) in diet for 140 d beginning at 21 d of age, Route [Carcinogen]: Intraperitoneal, Route [Promoter]: Oral, Species: Rat, Strain/Sex: Sprague-Dawley/Female (30/27), (30/25), (30/27), (30/23), Strain/Sex: Sprague-Dawley/Female (30/27), (30/25), (30/27), (30/23)) was “mammary gland: tumors. silymarin demonstrated a slight enhancement of mammary ca”.
Turning to `CC1=C[C@H]2[C@@]3(O)[C@H](C)[C@@H](OC(=O)c4ccccc4)[C@]4(OC(=O)c5ccccc5)[C@H]([C@@H]3C=C(CO)C[C@]2(O)C1=O)C4(C)C`, the outcome under setting [1] was “integumentary system (skin)”.
For the compound `CCC(C)C(NC(=O)C(CCCNC(=N)N)NC(=O)C(Cc1c[nH]cn1)NC(=O)C(CO)NC(=O)C1CCCN1C(=O)C(CC(=O)O)NC(=O)C(CC(C)C)NC(=O)C(CC(N)=O)NC(=O)C(CCC(N)=O)NC(=O)C(CC(C)C)NC(=O)C(CC(N)=O)NC(=O)C(CCCCN)NC(=O)C(NC(=O)C(NC(=O)C(CO)NC(=O)C(CCSC)NC(=O)C(CCCNC(=N)N)NC(=O)CNC(=O)C(CO)NC(=O)C1CCCN1C(=O)C(C)NC(=O)C(N)CCCCN)C(C)CC)C(C)C)C(=O)NC(CO)C(=O)NC(CC(=O)O)C(=O)NC(CCCNC(=N)N)C(=O)NC(CC(=O)O)C(=O)NC(C(=O)NC(CCSC)C(=O)NCC(=O)NC(Cc1c[nH]c2ccccc12)C(=O)NC(CCSC)C(=O)NC(CC(=O)O)C(=O)NC(Cc1ccccc1)C(N)=O)c1ccc(OS(=O)(=O)O)cc1` (configuration not stated) (H-KAPSGRMSIVKNLQNLDPSHRISDRD[X1]MGWMDF-NH2; configuration not given here), the outcome (Carcinogen: AZASERINE, 115-02-6, Doses [Carcinogen]: 30 MG/KG ON DAYS 19, 26, AND 54 OF AGE, Doses [Promoter]: 0, 2.5 UG/KG BW 1/D 3 D/WK FOR 8 MO BEGINNING 4 MO POST FIRST CARCINOGEN DOSE (STUDY DURATION: 8 MO), Route [Carcinogen]: INTRAPERITONEAL, Route [Promoter]: SUBCUTANEOUS, Species: RAT, Strain/Sex: WISTAR/MALE) is recorded as “pancreas: adenoma” and the outcome (Carcinogen: N-NITROSOBIS(2-OXOPROPYL)AMINE, 60599-38-4, Doses [Carcinogen]: 5 MG/KG 1/WK FOR STUDY DURATION, Doses [Promoter]: 0, 30 IDU/KG 3 D/WK FOR 6 WK (STUDY DURATION: 15 WK), Route [Carcinogen]: SUBCUTANEOUS, Route [Promoter]: SUBCUTANEOUS, Species: HAMSTER, Strain/Sex: SYRIAN/MALE) is listed as “pancreas: adenocarcinoma”.
Take `CN(C)CCOc1ccc(/C(=C(/CCCl)c2ccccc2)c2ccccc2)cc1`: where the note is “Carcinogen: DIETHYLNITROSAMINE, 55-18-5, Doses [Carcinogen]: 2.5 UG/G BW IN SALINE ONCE, Doses [Promoter]: 0, 0.5-1 MG IN PELLET IMPLANTED 1/MONTH FOR 30 WK BEGINNING 30 D POST CARCINOGEN TREATMENT (STUDY DURATION: 240 D), Route [Carcinogen]: INTRAPERITIONEAL, Route [Promoter]: SUBCUTANEOUS, Species: MOUSE, Strain/Sex: B6C3F1/FEMALE”, the outcome is “liver: tumor”.
In the case of `Clc1cc(Cl)c(-c2ccc(Cl)c(Cl)c2Cl)cc1Cl`, the outcome (Carcinogen: N-NITROSODIMETHYLAMINE, 62-75-9, Doses [Carcinogen]: 5 MG/KG IN SALINE ON POSTNATAL DAY 4, Doses [Promoter]: 0, 20 MG/KG IN OLIVE OIL ON POSTNATAL DAY 8 (STUDY DURATION: 16 WK), Route [Carcinogen]: INTRAPERITONEAL, Route [Promoter]: GAVAGE, Species: MOUSE, Strain/Sex: SWISS/MALE, FEMALE) is “lung: tumor”.
`O=[N+]([O-])c1ccc(F)c([N+](=O)[O-])c1`: the outcome is “skin: tumor” (Carcinogen: 7,12-DIMETHYLBENZ[A]ANTHRACENE, 57-97-6, Doses [Carcinogen]: 2.5 UG IN 200 µL ACETONE ONCE, Doses [Promoter]: 0, 0.1, 0.2% IN ACETONE/OLIVE OIL (4:1) 2/WK FOR 52 WK BEGINNING 2 WK POST CARCINOGEN DOSE (STUDY DURATION: 54 WK), Doses [Promoter]: 0, 0.1, 0.2% IN ACETONE/OLIVE OIL (4:1) 2/WK FOR 52 WK BEGINNING 2 WK POST CARCINOGEN DOSE (STUDY DURATION: 54 WK), Route [Carcinogen]: DERMAL, Route [Promoter]: DERMAL, Species: MOUSE, Strain/Sex: SENCAR/FEMALE) and “skin: tumor” (Carcinogen: 7,12-DIMETHYLBENZ[A]ANTHRACENE, 57-97-6, Doses [Carcinogen]: 100 NMOL ONCE, Doses [Promoter]: 0, 0.1, 0.2% 2/WK FOR 27 WK BEGINNING 2 WK POST CARCINOGEN DOSE (STUDY DURATION: 59 WK), Doses [Promoter]: 0, 0.1, 0.2% 2/WK FOR 27 WK BEGINNING 2 WK POST CARCINOGEN DOSE (STUDY DURATION: 59 WK), Route [Carcinogen]: DERMAL, Route [Promoter]: DERMAL, Species: MOUSE, Strain/Sex: SENCAR/FEMALE).
Consider `O=c1cc(CO)occ1O`, for which the outcome (Carcinogen: N-NITROSOBIS(2-HYDROXYPROPYL)AMINE;53609-64-6, Doses [Carcinogen]: 2000 MG/KG BW ONCE, Doses [Promoter]: 0, 0.002%, 0.008%, 0.03%, 0.125%, 0.5%, 2% IN DIET FOR 20 WK BEGINNING 1 WK POST CARCINOGEN TREATMENT (STUDY DURATION: 2, Doses [Promoter]: 0, 0.002%, 0.008%, 0.03%, 0.125%, 0.5%, 2% IN DIET FOR 20 WK BEGINNING 1 WK POST CARCINOGEN TREATMENT (STUDY DURATION: 2, Route [Carcinogen]: SUBCUTANEOUS, Route [Promoter]: ORAL, Species: RAT, Strain/Sex: F344/MALE) was “thyroid gland: adenoma, carcinoma”.
